Results as given in patent US11807644B2 (PMV Pharmaceuticals, Inc., priority 2020, dated 2023).

Target: T1, recombinant His-tag Y220C p53 DBD protein (Homo sapiens, UniProt P04637, Y220C)
T1 construct: recombinant His-tag Y220C p53 DBD protein (amino acids #˜94-312)
Assay: In vitro DNA binding activity assay (TR-FRET): binding of His-tag Y220C p53 DBD to biotin-labeled consensus DNA
Type: biochemical
Conditions: SC150 = concentration to increase DNA binding by […], His-tag Y220C p53 DBD, biotin-labeled consensus DNA

Row | SMILES | Y220C SC150 (μM)
1 | O=C(NCc1nc(-c2cc3c(NC4CCOCC4)cccc3n2CC(F)(F)F)no1)C1CC1 [Compound 159B, N-[(3-{4-[(oxan-4-yl)amino]-1-(2,2,2-trifluoroethyl)-1H-indol-2-yl}-1,2,4-oxadiazol-5-yl)methyl]cyclopropanecarboxamide] | * (* = 0 μM ≤ SC150 < 0.1 μM)
2 | CC(=O)N1CCC(Nc2cccc3c2cc(-c2noc(CNC(=O)C4CC4)n2)n3CC(F)(F)F)CC1 [Compound 161B, N-[(3-{4-[(1-acetylpiperidin-4-yl)amino]-1-(2,2,2-trifluoroethyl)-1H-indol-2-yl}-1,2,4-oxadiazol-5-yl)methyl]cyclopropanecarboxamide] | * (* = 0 μM ≤ SC150 < 0.1 μM)
3 | O=C(NCc1nc(-c2cc3c(NC4CCS(=O)(=O)CC4)cccc3n2CC(F)(F)F)no1)C1CC1 [Compound 162B, N-[(3-{4-[(1,1-dioxo-1λ^6-thian-4-yl)amino]-1-(2,2,2-trifluoroethyl)-1H-indol-2-yl}-1,2,4-oxadiazol-5-yl)methyl]cyclopropanecarboxamide] | * (* = 0 μM ≤ SC150 < 0.1 μM)
4 | O=C(NCc1nc(-c2cc3c(NC4CCN(C5CC5)CC4)cccc3n2CC(F)(F)F)no1)C1CC1 [Compound 164B, N-[(3-{4-[(1-cyclopropylpiperidin-4-yl)amino]-1-(2,2,2-trifluoroethyl)-1H-indol-2-yl}-1,2,4-oxadiazol-5-yl)methyl]cyclopropanecarboxamide] | * (* = 0 μM ≤ SC150 < 0.1 μM)
5 | O=C(NCc1nc(-c2cc3c(NCC4CC4)cccc3n2CC(F)(F)F)no1)C1CC1 [Compound 165B, N-[(3-{4-[(cyclopropylmethyl)amino]-1-(2,2,2-trifluoroethyl)-1H-indol-2-yl}-1,2,4-oxadiazol-5-yl)methyl]cyclopropanecarboxamide] | ** (** = 0.1 μM ≤ SC150 < 0.5 μM)
6 | O=C(NCc1nc(-c2cc3c(NCC4CCC4)cccc3n2CC(F)(F)F)no1)C1CC1 [Compound 166B, N-[(3-{4-[(cyclobutylmethyl)amino]-1-(2,2,2-trifluoroethyl)-1H-indol-2-yl}-1,2,4-oxadiazol-5-yl)methyl]cyclopropanecarboxamide] | ** (** = 0.1 μM ≤ SC150 < 0.5 μM)
7 | CCN1CCC(Nc2cccc3c2cc(-c2noc(CNC(=O)C4CC4)n2)n3CC(F)(F)F)CC1 [Compound 168B, N-[(3-{4-[(1-ethylpiperidin-4-yl)amino]-1-(2,2,2-trifluoroethyl)-1H-indol-2-yl}-1,2,4-oxadiazol-5-yl)methyl]cyclopropanecarboxamide] | * (* = 0 μM ≤ SC150 < 0.1 μM)
8 | O=C(NCc1nc(-c2cc3c(NCC4CNC4)cccc3n2CC(F)(F)F)no1)C1CC1 [Compound 170B, N-{[3-(4-{[(432zetidine-3-yl)methyl]amino}-1-(2,2,2-trifluoroethyl)-1H-indol-2-yl)-1,2,4-oxadiazol-5-yl]methyl}cyclopropanecarboxamide] | * (* = 0 μM ≤ SC150 < 0.1 μM)
9 | CN1CC[C@@H](Nc2cccc3c2cc(-c2noc(CNC(=O)C4CC4)n2)n3CC(F)(F)F)[C@@H](F)C1 [Compound 173B, N-{[3-(4-{[(3S,4R)-3-fluoro-1-methylpiperidin-4-yl]amino}-1-(2,2,2-trifluoroethyl)-1H-indol-2-yl)-1,2,4-oxadiazol-5-yl]methyl}cyclopropanecarboxamide] | * (* = 0 μM ≤ SC150 < 0.1 μM)
10 | CN1CC[C@H](Nc2cccc3c2cc(-c2noc(CNC(=O)C4CC4)n2)n3CC(F)(F)F)[C@H](F)C1 [Compound 174B, N-{[3-(4-{[(3R,4S)-3-fluoro-1-methylpiperidin-4-yl]amino}-1-(2,2,2-trifluoroethyl)-1H-indol-2-yl)-1,2,4-oxadiazol-5-yl]methyl}cyclopropanecarboxamide] | * (* = 0 μM ≤ SC150 < 0.1 μM)
11 | CN1CC[C@@H](Nc2cccc3c2cc(-c2noc(CNC(=O)c4ccn(C)c4)n2)n3CC(F)(F)F)[C@@H](F)C1 [Compound 181B, N-{[3-(4-{[(3S,4R)-3-fluoro-1-methylpiperidin-4-yl]amino}-1-(2,2,2-trifluoroehyl)-1H-indol-2-yl)-1,2,4-oxadiazol-5-yl]methyl}-1-methyl-1H-pyrrole-3-carboxamide] | * (* = 0 μM ≤ SC150 < 0.1 μM)
12 | CN1CC[C@H](Nc2cccc3c2cc(-c2noc(CNC(=O)c4ccn(C)c4)n2)n3CC(F)(F)F)[C@H](F)C1 [Compound 182B, N-{[3-(4-{[(3R,4S)-3-fluoro-1-methylpiperidin-4-yl]amino}-1-(2,2,2-trifluoroethyl)-1H-indol-2-yl)-1,2,4-oxadiazol-5-yl]methyl}-1-methyl-1H-pyrrole-3-carboxamide] | * (* = 0 μM ≤ SC150 < 0.1 μM)
13 | CCn1ccc(C(=O)NCc2nc(-c3cc4c(N[C@@H]5CCN(C)C[C@@H]5F)cccc4n3CC(F)(F)F)no2)c1 [Compound 186B, 1-ethyl-N-{[3-(4-{[(3S,4R)-3-fluoro-1-methylpiperidin-4-yl]amino}-1-(2,2,2-trifluoroethyl)-1H-indol-2-yl)-1,2,4-oxadiazol-5-yl]methyl}-1H-pyrrole-3-carboxamide] | * (* = 0 μM ≤ SC150 < 0.1 μM)
14 | CCn1ccc(C(=O)NCc2nc(-c3cc4c(N[C@H]5CCN(C)C[C@H]5F)cccc4n3CC(F)(F)F)no2)c1 [Compound 187B, 1-ethyl-N-{[3-(4-{[(3R,4S)-3-fluoro-1-methylpiperidin-4-yl]amino}-1-(2,2,2-trifluoroethyl)-1H-indol-2-yl)-1,2,4-oxadiazol-5-yl]methyl}-1H-pyrrole-3-carboxamide] | * (* = 0 μM ≤ SC150 < 0.1 μM)
15 | CN1CC[C@@H](Nc2cccc3c2cc(-c2noc(CNC(=O)c4ccsc4)n2)n3CC(F)(F)F)[C@@H](F)C1 [Compound 189B, N-{[3-(4-{[(3S,4R)-3-fluoro-1-methylpiperidin-4-yl]amino}-1-(2,2,2-trifluoroethyl)-1H-indol-2-yl)-1,2,4-oxadiazol-5-yl]methyl}thiophene-3-carboxamide] | * (* = 0 μM ≤ SC150 < 0.1 μM)
16 | CN1CC[C@H](Nc2cccc3c2cc(-c2noc(CNC(=O)c4ccsc4)n2)n3CC(F)(F)F)[C@H](F)C1 [Compound 190B, N-{[3-(4-{[(3R,4S)-3-fluoro-1-methylpiperidin-4-yl]amino}-1-(2,2,2-trifluoroethyl)-1H-indol-2-yl)-1,2,4-oxadiazol-5-yl]methyl}thiophene-3-carboxamide] | * (* = 0 μM ≤ SC150 < 0.1 μM)
17 | CN1CC[C@@H](Nc2cccc3c2cc(-c2noc(CNC(=O)c4ccn(C(C)(C)C)c4)n2)n3CC(F)(F)F)[C@@H](F)C1 [Compound 194B, 1-tert-butyl-N-{[3-(4-{[(3S,4R)-3-fluoro-1-methylpiperidin-4-yl]amino}-1-(2,2,2-trifluoroethyl)-1H-indol-2-yl)-1,2,4-oxadiazol-5-yl]methyl}-1H-pyrrole-3-carboxamide] | * (* = 0 μM ≤ SC150 < 0.1 μM)

Now from value to compound:

Row | Y220C SC150 (μM) | SMILES
18 | * (* = 0 μM ≤ SC150 < 0.1 μM) | CN1CCC(Nc2cccc3c2cc(-c2noc(CNC(=O)c4ccc(F)cc4)n2)n3CC(F)(F)F)CC1 [Compound 150B, 4-fluoro-N-[(3-{4-[(1-methylpiperidin-4-yl)amino]-1-(2,2,2-trifluoroethyl)-1H-indol-2-yl}-1,2,4-oxadiazol-5-yl)methyl]benzamide]
19 | * (* = 0 μM ≤ SC150 < 0.1 μM) | CN1CCC(Nc2cccc3c2cc(-c2noc(CNC(=O)c4ccc(C#N)cc4)n2)n3CC(F)(F)F)CC1 [Compound 151B, 4-cyano-N-[(3-{4-[(1-methylpiperidin-4-yl)amino]-1-(2,2,2-trifluoroethyl)-1H-indol-2-yl}-1,2,4-oxadiazol-5-yl)methyl]benzamide]
20 | * (* = 0 μM ≤ SC150 < 0.1 μM) | CN1CCC(Nc2cccc3c2cc(-c2noc(CNC(=O)c4ccn(C)c4)n2)n3CC(F)(F)F)CC1 [Compound 152B, 1-methyl-N-[(3-{4-[(1-methylpiperidin-4-yl)amino]-1-(2,2,2-trifluoroethyl)-1H-indol-2-yl}-1,2,4-oxadiazol-5-yl)methyl]-1H-pyrrole-3-carboxamide]
21 | * (* = 0 μM ≤ SC150 < 0.1 μM) | CN1CCC(Nc2cccc3c2cc(-c2noc(CNC(=O)Nc4ccccc4)n2)n3CC(F)(F)F)CC1 [Compound 153B, 3-[(3-{4-[(1-methylpiperidin-4-yl)amino]-1-(2,2,2-trifluoroethyl)-1H-indol-2-yl}-1,2,4-oxadiazol-5-yl)methyl]-1-phenylurea]
22 | * (* = 0 μM ≤ SC150 < 0.1 μM) | CN1CCC(Nc2cccc3c2cc(-c2noc(CNC(=O)c4cnn(C)c4)n2)n3CC(F)(F)F)CC1 [Compound 154B, 1-methyl-N-[(3-{4-[(1-methylpiperidin-4-yl)amino]-1-(2,2,2-trifluoroethyl)-1H-indol-2-yl}-1,2,4-oxadiazol-5-yl)methyl]-1H-pyrazole-4-carboxamide]
23 | * (* = 0 μM ≤ SC150 < 0.1 μM) | CN1CCC(Nc2cccc3c2cc(-c2noc(CNC(=O)c4ccn(C)n4)n2)n3CC(F)(F)F)CC1 [Compound 155B, 1-methyl-N-[(3-{4-[(1-methylpiperidin-4-yl)amino]-1-(2,2,2-trifluoroethyl)-1H-indol-2-yl}-1,2,4-oxadiazol-5-yl)methyl]-1H-pyrazole-3-carboxamide]
24 | ** (** = 0.1 μM ≤ SC150 < 0.5 μM) | O=C(NCc1nc(-c2cc3c(NCc4ccccc4)cccc3n2CC(F)(F)F)no1)C1CC1 [Compound 160B, N-({3-[4-(benzylamino)-1-(2,2,2-trifluoroethyl)-1H-indol-2-yl]-1,2,4-oxadiazol-5-yl}methyl)cyclopropanecarboxamide]
25 | * (* = 0 μM ≤ SC150 < 0.1 μM) | O=C(NCc1nc(-c2cc3c(NC4CCN(Cc5ccccc5)CC4)cccc3n2CC(F)(F)F)no1)C1CC1 [Compound 163B, N-[(3-{4-[(1-benzylpiperidin-4-yl)amino]-1-(2,2,2-trifluoroethyl)-1H-indol-2-yl}-1,2,4-oxadiazol-5-yl)methyl]cyclopropanecarboxamide]
